According to the supplement of paper PMC13380429:

Columns and labels:
Caco-2 [1] = assay: drug sensitivity score (DSS) for viability; higher = more toxic; extreme values may be limits of the assay; details: 72 h
U2OS [2] = assay: as above; details: 72 h
Vero E6 [3] = assay: as above; details: 72 h
HepG2 [4] = assay: as above; details: 72 h
Calu-3 [5] = assay: as above; details: 72 h
A549-ACE2 [6] = assay: phospholipidosis EC50; higher = less potent phospholipidosis inducer
Caco-2 [7] = assay: relative viability EC50 (midpoint between 100% and the lowest measured viability); higher = less toxic; details: 72 h
HepG2 [8] = assay: as above; details: 72 h
[9] = tested on: A549-ACE2 infected with SARS-CoV-2; assay: SARS-CoV-2 infection rate relative to DMSO; higher = more infection; details: 24 h
[10] = tested on: A549-ACE2 infected with SARS-CoV-2; assay: morphology score (similarity to uninfected cells); higher = more like uninfected cells; details: 24 h
Caco-2 [11] = assay: cell viability relative to DMSO; higher = less toxic; details: 72 h
U2OS [12] = assay: as above; details: 72 h
Vero E6 [13] = assay: as above; details: 72 h
HepG2 [14] = assay: as above; details: 72 h
Calu-3 [15] = assay: as above; details: 72 h
A549-ACE2 [16] = assay: drug-induced phospholipidosis relative to tamoxifen; higher = more phospholipidosis
[17] = tested on: A549-ACE2 infected with SARS-CoV-2; assay: cell count relative to DMSO; higher = less toxic; details: 24 h
U2OS [18] = assay: relative viability EC50 (midpoint between 100% and the lowest measured viability); higher = less toxic; details: 72 h
Vero E6 [19] = assay: as above; details: 72 h
Calu-3 [20] = assay: as above; details: 72 h

CN1CCN(C2CCN(C(=O)Nc3cc(Oc4ccc(NC(=O)C5(C(=O)Nc6ccc(F)cc6)CC5)c(F)c4)ccn3)CC2)CC1 [golvatinib]
Details	drug sensitivity score	relative viability EC50 [µM]
Caco-2 [1]	5	–
Caco-2 [7]	–	1.66
Calu-3 [5]	1.4	–
HepG2 [4]	9	–
HepG2 [8]	–	1.63
U2OS [2]	1.6	–
Vero E6 [3]	3.4	–

Details	SARS-CoV-2 infection rate [%]	cell count [%]	cell viability [%]	morphology score	phospholipidosis EC50 [µM]
A549-ACE2 [6], 24 h	–	–	–	–	4.22
A549-ACE2 [6], 48 h	–	–	–	–	9.68
A549-ACE2 [6], 72 h	–	–	–	–	11.3
Caco-2 [11], 1 nM	–	–	102	–	–
Caco-2 [11], 10 nM	–	–	89.1	–	–
Caco-2 [11], 100 nM	–	–	95	–	–
Caco-2 [11], 1000 nM	–	–	87.9	–	–
Caco-2 [11], 10000 nM	–	–	44.2	–	–
Calu-3 [15], 1 nM	–	–	92.4	–	–
Calu-3 [15], 10 nM	–	–	105	–	–
Calu-3 [15], 100 nM	–	–	97.1	–	–
Calu-3 [15], 1000 nM	–	–	106	–	–
Calu-3 [15], 10000 nM	–	–	63.4	–	–
HepG2 [14], 1 nM	–	–	97.8	–	–
HepG2 [14], 10 nM	–	–	95.5	–	–
HepG2 [14], 100 nM	–	–	102	–	–
HepG2 [14], 1000 nM	–	–	77.6	–	–
HepG2 [14], 10000 nM	–	–	1.4	–	–
U2OS [12], 1 nM	–	–	96.7	–	–
U2OS [12], 10 nM	–	–	102	–	–
U2OS [12], 100 nM	–	–	97.6	–	–
U2OS [12], 1000 nM	–	–	104	–	–
U2OS [12], 10000 nM	–	–	61.2	–	–
Vero E6 [13], 1 nM	–	–	95.3	–	–
Vero E6 [13], 10 nM	–	–	97.5	–	–
Vero E6 [13], 100 nM	–	–	95	–	–
Vero E6 [13], 1000 nM	–	–	91.3	–	–
Vero E6 [13], 10000 nM	–	–	59.6	–	–
[9], 0.1 µM	107	–	–	–	–
[9], 0.3 µM	104	–	–	–	–
[9], 1 µM	95	–	–	–	–
[9], 3 µM	50	–	–	–	–
[10], 0.1 µM	–	–	–	-0.16	–
[10], 0.3 µM	–	–	–	-0.14	–
[10], 1 µM	–	–	–	0.12	–
[10], 3 µM	–	–	–	0.64	–
[17], 0.1 µM	–	94	–	–	–
[17], 0.3 µM	–	101	–	–	–
[17], 1 µM	–	103	–	–	–
[17], 3 µM	–	110	–	–	–

drug-induced phospholipidosis [%], A549-ACE2 [16]
Details	0.3 µM	0.833333 µM	3.33333 µM	6.66667 µM	10 µM	30 µM
24 h	1.8	1.61	20.9	69	79.8	76.4
48 h	3.53	3.1	11.1	42.2	75.9	–
72 h	5.78	3.08	10.8	36.2	67.2	–

COc1ccc2c(C)nc(Nc3nc(C)c(C)c(O)n3)nc2c1 [madrasin]
Details	drug sensitivity score	relative viability EC50 [µM]
Caco-2 [1]	0	–
Caco-2 [7]	–	> 10
Calu-3 [5]	0	–
Calu-3 [20]	–	> 10
HepG2 [4]	0	–
HepG2 [8]	–	> 10
U2OS [2]	0	–
U2OS [18]	–	> 10
Vero E6 [3]	0	–
Vero E6 [19]	–	> 10

Details	SARS-CoV-2 infection rate, [9] [%]	cell count, [17] [%]	cell viability, Caco-2 [11] [%]	cell viability, Calu-3 [15] [%]	cell viability, HepG2 [14] [%]	cell viability, U2OS [12] [%]	cell viability, Vero E6 [13] [%]	morphology score, [10]
1 nM	–	–	105	94.7	89.9	98.6	82.8	–
10 nM	–	–	99.2	84	95.4	98.1	99.1	–
100 nM	–	–	119	97	90.9	102	91	–
0.3 µM	90	102	–	–	–	–	–	0.29
1000 nM	–	–	101	108	92.7	98.8	98.1	–
3 µM	88	105	–	–	–	–	–	0.36
10 µM	96	102	–	–	–	–	–	0.21
10000 nM	–	–	98.3	94.6	93.5	97	111	–
30 µM	1	95	–	–	–	–	–	0.75

drug-induced phospholipidosis [%], A549-ACE2 [16]
Details	0.3 µM	0.833333 µM	3.33333 µM	6.66667 µM	10 µM	30 µM
24 h	2.49	-0.05	-3.35	-1.32	1.34	56
48 h	3.81	-2.33	-1.09	0.46	1.75	–
72 h	0.061	-7.49	0.0944	-0.243	1.1	–
